Laboratory results published in patent US20250368649A1, “TETRAHYDROPYRIDOPYRIMIDINE PAN-KRAS INHIBITORS” (Mirati Therapeutics, Inc., priority 2022, published 2025).

Experiments:
H727 cells = experiment: Inhibition of KRas-mediated phosphorylation of ERK (Cisbio HTRF pERK), H727 cells; type: cell-based; settings: Homo sapiens, NCI-H727, 3 h, 3 hr compound incubation
ASPC1 cells = experiment: Inhibition of KRas-mediated phosphorylation of ERK (Cisbio HTRF pERK), ASPC1 cells; type: cell-based; settings: Homo sapiens, ASPC1, 3 h, AsPC-1 cells, 3 hr compound incubation
KRas G12R = KRas G12R (Homo sapiens, UniProt P01116, G12R); experiment: biochemical; settings: Binding to KRas (IC50 nM) G12R, TR-FRET displacement, KRas G12R
Chain of KRas G12R (P01116 1-169 isoform P01116-2 G12R): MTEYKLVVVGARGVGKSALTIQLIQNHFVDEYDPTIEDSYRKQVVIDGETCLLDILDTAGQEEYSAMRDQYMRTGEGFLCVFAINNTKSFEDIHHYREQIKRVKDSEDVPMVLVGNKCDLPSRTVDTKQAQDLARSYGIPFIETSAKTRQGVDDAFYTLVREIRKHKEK

KRas G12V = KRas G12V (Homo sapiens, UniProt P01116, G12V); experiment: biochemical; settings: Binding to KRas (IC50 nM) G12V, TR-FRET displacement, KRas G12V
Chain of KRas G12V (P01116 1-169 isoform P01116-2 G12V): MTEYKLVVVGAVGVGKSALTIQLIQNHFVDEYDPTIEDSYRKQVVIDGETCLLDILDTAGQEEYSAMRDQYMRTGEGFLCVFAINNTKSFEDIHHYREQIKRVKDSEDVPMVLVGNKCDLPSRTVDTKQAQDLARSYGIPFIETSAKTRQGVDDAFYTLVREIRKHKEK

KRas G12D = KRas G12D (Homo sapiens, UniProt P01116, G12D); experiment: biochemical; settings: Binding to KRas (IC50 nM) G12D, TR-FRET displacement, KRas G12D
Chain of KRas G12D (P01116 1-169 isoform P01116-2 G12D): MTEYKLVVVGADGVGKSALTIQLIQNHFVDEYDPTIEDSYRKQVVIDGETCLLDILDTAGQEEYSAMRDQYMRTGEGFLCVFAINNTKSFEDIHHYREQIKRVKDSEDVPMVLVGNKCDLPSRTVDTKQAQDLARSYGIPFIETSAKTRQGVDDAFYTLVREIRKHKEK

MKN1 cells = experiment: Inhibition of KRas-mediated phosphorylation of ERK (Cisbio HTRF pERK), MKN1 cells; type: cell-based; settings: Homo sapiens
Description: (§1) Inhibition of KRas Phosphorylation of ERK (HTRF) by Exemplary Compounds of Formula (I) Cisbio HTRF Advanced pERK Assay Catalog #64AERPEH • Cells: MKN1, PSN1 • Procedure: • Day 1: Seed 6,000 cells/well -25 µl/well in 384-well white solid bottom plate; RPM1_10% FBS.

PSN1 cells = experiment: Inhibition of KRas-mediated phosphorylation of ERK (Cisbio HTRF pERK), PSN1 cells; type: cell-based; settings: Homo sapiens, PSN1, 3 h
Description: as §1

[1] = MKN-1, 3 hour compound incubation, Cisbio pERK HTRF
[2] = 3 hour compound incubation, Cisbio pERK HTRF

Row | SMILES | IC50 (H727 cells; Cisbio pERK HTRF) [nM] | IC50 (ASPC1 cells; Cisbio pERK HTRF) [nM] | IC50 (KRas G12R) [nM] | IC50 (KRas G12V) [nM] | IC50 (KRas G12D) [nM] | IC50 (MKN1 cells; [1]) [nM] | IC50 (PSN1 cells; [2]) [nM] | IC50 (H727 cells) [nM] | IC50 (ASPC1 cells) [nM] | IC50 (MKN1 cells; MKN-1, 3 hr compound incubation) [nM] | IC50 (PSN1 cells; 3 hr compound incubation) [nM]
1 | CCc1c(F)ccc2cc(O)cc(N3CCc4c(nc(OC[C@@]56CCCN5C[C@H](F)C6)nc4NCC4CC(=O)NC4=O)C3)c12 (stereo partly drawn) [Example 414, 3-(((7-(8-ethyl-7-fluoro-3-hydroxynaphthalen-1-yl)-2-(((2R,7aS)-2-fluorotetrahydro-1H-pyrrolizin-7a(5H)-yl)methoxy)-5,6,7,8-tetrahydropyrido[3,4-d]pyrimidin-4-yl)amino)methyl)pyrrolidine-2,5-dione] | 935 | 3000 | 11 | 3 | 8 | 28.4 | 7540 | – | – | – | –
2 | CCc1c(F)ccc2cc(O)cc(N3CCc4c(nc(OCC5(CN(C)C)CC5)nc4N4C[C@@H]5C[C@H](C4)[C@H](O)C5)C3)c12 [Example 431, (1R,5R,6R)-3-(2-((1-((dimethylamino)methyl)cyclopropyl)methoxy)-7-(8-ethyl-7-fluoro-3-hydroxynaphthalen-1-yl)-5,6,7,8-tetrahydropyrido[3,4-d]pyrimidin-4-yl)-3-azabicyclo[3.2.1]octan-6-ol] | 1100 | 1410 | < 2 | 2 | 6 | 158 | > 10000 | – | – | – | –
3 | CCc1c(F)ccc2cc(O)cc(N3CCc4c(nc(OC[C@@]56CCCN5C[C@H](F)C6)nc4N4CCCn5nc(C(=O)N6CC7CN(C8COC8)CC7C6)cc5C4)C3)c12 (stereo partly drawn) [Example 503] | 19 | 11 | < 2 | < 2 | < 2 | 10.7 | 3230 | – | – | – | –
4 | O=S1(=O)CCC2(CCCN(c3nc(OC[C@@]45CCCN4C[C@H](F)C5)nc4c3CCN(c3cc(O)cc5cccc(Cl)c35)C4)C2)N1 (stereo partly drawn) [Example 513, 7-(7-(8-chloro-3-hydroxynaphthalen-1-yl)-2-(((2R,7aS)-2-fluorohexahydro-1H-pyrrolizin-7a-yl)methoxy)-5,6,7,8-tetrahydropyrido[3,4-d]pyrimidin-4-yl)-2-thia-1,7-diazaspiro[4.5]decane 2,2-dioxide] | 92 | 27 | < 2 | < 2 | 3 | 6 | 949 | – | – | – | –
5 | CCc1c(F)ccc2cc(O)cc(N3CCc4c(nc(OC[C@@]56CCCN5C[C@H](F)C6)nc4N4CCCCn5nc(N)cc5C4)C3)c12 [Example 590, 4-(4-(2-amino-6,7,8,9-tetrahydropyrazolo[1,5-a][1,4]diazocin-5(4H)-yl)-2-(((2R,7aS)-2-fluorotetrahydro-1H-pyrrolizin-7a(5H)-yl)methoxy)-5,8-dihydropyrido[3,4-d]pyrimidin-7(6H)-yl)-5-ethyl-6-fluoronaphthalen-2-ol] | 277 | 391 | < 2 | 2 | 4 | 40.8 | 9600 | – | – | – | –
6 | CCc1c(F)ccc2cc(O)cc(N3CCc4c(nc(OC[C@@]56CCCN5C[C@H](F)C6)nc4N4CCCn5ncc(CO)c5C4)C3)c12 [Example 633, 5-ethyl-6-fluoro-4-(2-(((2R,7aS)-2-fluorotetrahydro-1H-pyrrolizin-7a(5H)-yl)methoxy)-4-(3-(hydroxymethyl)-7,8-dihydro-4H-pyrazolo[1,5-a][1,4]diazepin-5(6H)-yl)-5,8-dihydropyrido[3,4-d]pyrimidin-7(6H)-yl)naphthalen-2-ol] | – | – | < 2 | < 2 | < 2 | – | – | 100 | 48 | 70.3 | > 10000
